Test results as given in patent publication US4895842A, “Phenylalanine derivative and proteinase inhibitor” (Shosuke Okamoto, priority 1985, dated 1990).
Counter-ions that a name gives are not always drawn. Like-named read-outs stand apart in the source and are kept apart here.

Legend:
bovine thrombin [1] = target: T1, bovine thrombin (Bos taurus, UniProt P00735); assay: Antithrombin activity: inhibition of fibrin formation from fibrinogen; type: biochemical
Experimental: (i) Determination of inhibition activity against fibrin formation
An inhibitor sample is dissolved in a 0.18M borate-physiological salt buffer solution (pH=7.4) to make the total volume to 500 μl. To this solution, 400 μl of a 0.2% bovine fibrinogen solution and 100 μl of a 4 unit/ml bovine thrombin solution are added at a temperature of 37° C. in a constant temperature bath. Thus, a coagulation time is determined. The inhibitor concentration I50 (μmol), at which the coagulation time obtained in the absence of the inhibitor is extended twice, is determined.

bovine thrombin [2] = target: T1, bovine thrombin; assay: Antithrombin activity: inhibition of S-2238 decomposition; type: biochemical
Experimental: (ii) Determination of inhibition activity for S-2238 decomposition
An inhibitor sample is dissolved in a 0.05M Tris-hydrochloric acid buffer solution (pH=8.3) to make a total volume of 400 μl. To this solution, 50 μl of a 0.2 mM S-2238 solution is added and the mixture is incubated at a temperature of 37° C. for 5 minutes in a constant temperature bath. Then, 50 μl of a 0.2 unit/ml bovine thrombin solution is added thereto and the absorbance, at 405 nm, of the p-nitroaniline formed per minute is determined at a temperature of 37° C. by using the so-called initial velocity method. Thus, the concentration I50 (μmol) of the inhibitor sample at which the absorbance is one half (i.e., 1/2) of that obtained in the absence of the inhibitor sample, is determined.

human plasmin [3] = target: T2, human plasmin (Homo sapiens, UniProt P00747); assay: Antiplasmin activity: inhibition of fibrin decomposition; type: biochemical; conditions: read-out: Plasmin Fibrin (I50)
T2 sequence (P00747 581-810 limits assumed): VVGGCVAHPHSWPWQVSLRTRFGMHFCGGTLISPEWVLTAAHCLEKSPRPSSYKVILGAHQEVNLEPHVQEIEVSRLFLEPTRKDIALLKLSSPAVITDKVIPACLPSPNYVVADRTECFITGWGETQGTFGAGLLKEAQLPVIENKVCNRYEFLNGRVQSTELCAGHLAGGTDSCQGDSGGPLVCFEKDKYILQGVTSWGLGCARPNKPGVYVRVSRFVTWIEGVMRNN
T2 sequence (P00747 97-580 partner limits assumed): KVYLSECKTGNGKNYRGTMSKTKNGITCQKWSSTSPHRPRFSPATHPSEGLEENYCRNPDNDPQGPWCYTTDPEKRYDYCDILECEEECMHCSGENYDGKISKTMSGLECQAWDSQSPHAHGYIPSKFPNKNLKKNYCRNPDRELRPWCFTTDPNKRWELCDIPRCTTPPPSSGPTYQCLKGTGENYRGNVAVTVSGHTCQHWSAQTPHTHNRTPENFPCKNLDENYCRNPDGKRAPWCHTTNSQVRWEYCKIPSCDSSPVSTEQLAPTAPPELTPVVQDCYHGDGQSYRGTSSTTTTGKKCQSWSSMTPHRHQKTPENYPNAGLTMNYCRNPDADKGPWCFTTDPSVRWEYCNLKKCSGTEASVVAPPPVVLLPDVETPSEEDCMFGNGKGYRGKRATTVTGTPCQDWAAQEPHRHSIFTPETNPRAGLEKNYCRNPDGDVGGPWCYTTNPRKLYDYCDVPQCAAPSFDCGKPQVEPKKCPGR
Experimental: (i) Determination of inhibition activity for fibrin decomposition
An inhibitor sample is dissolved in a 0.18M borate-physiological salt buffer solution (pH=7.4) to make the total volume to 600 μl. To this buffer solution, 200 μl of a 0.2% bovine fibrinogen, 100 μl of a 0.3 casein unit/ml human plasmin solution, and 100 μl of a 50 unit/ml bovine thrombin solution, all dissolved in the above-mentioned buffer, are added at a temperature of 37° C. in a constant temperature bath. Then, the dissolution time of the fibrin mass formed above is determined.

human plasma kallikrein = human plasma kallikrein (Homo sapiens, UniProt P03952); assay: Anti-plasma kallikrein activity: inhibition of S-2302 decomposition; type: biochemical; conditions: S-2302 substrate, read-out: Plasma Kallikrein S-2302 (I50)
Sequence of human plasma kallikrein (P03952 391-638 limits assumed): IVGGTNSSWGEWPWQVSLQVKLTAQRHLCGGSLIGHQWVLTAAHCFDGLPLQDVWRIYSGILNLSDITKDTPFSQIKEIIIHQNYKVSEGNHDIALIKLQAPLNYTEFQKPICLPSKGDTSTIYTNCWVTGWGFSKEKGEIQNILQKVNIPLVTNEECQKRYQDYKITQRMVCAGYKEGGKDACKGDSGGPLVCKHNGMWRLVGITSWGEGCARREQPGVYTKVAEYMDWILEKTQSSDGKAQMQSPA
Sequence of human plasma kallikrein (P03952 20-390 partner limits assumed): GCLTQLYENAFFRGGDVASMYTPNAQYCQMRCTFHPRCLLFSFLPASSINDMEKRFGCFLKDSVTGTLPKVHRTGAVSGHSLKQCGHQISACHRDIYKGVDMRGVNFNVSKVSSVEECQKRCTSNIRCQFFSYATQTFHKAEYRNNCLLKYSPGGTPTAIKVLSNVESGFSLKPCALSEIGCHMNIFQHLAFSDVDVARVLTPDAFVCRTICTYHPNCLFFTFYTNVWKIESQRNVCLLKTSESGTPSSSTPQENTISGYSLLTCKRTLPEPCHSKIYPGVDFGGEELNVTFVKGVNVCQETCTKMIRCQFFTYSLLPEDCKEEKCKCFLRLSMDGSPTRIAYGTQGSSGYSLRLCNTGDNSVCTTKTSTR
Experimental: Determination of inhibition activity for S-2302 decomposition
An inhibitor sample is dissolved in a 0.05M Tris-hydrochloric acid buffer solution (pH=7.8) to make the total volume to 400 μl. To this solution, 50 μl of a 2 mM S-2302 solution is added and the mixture is incubated at a temperature of 37° C. for 5 minutes in a constant temperature bath. Then, 50 μl of a 0.12 unit/ml human plasma kallikrein is added and the mixture is incubated at a temperature of 37° C. for 5 minutes. Thereafter, 50 μl of 50% acetic acid is added to terminate the reaction. The absorbance of the p-nitroaniline formed in the reaction mixture is measured at 405 nm. Thus, the concentration I50 (μmol) of the inhibitor sample, at which the absorbance is one half (i.e., 1/2) of that obtained in the absence of the inhibitor sample, is determined.

bovine trypsin = target: T3, bovine trypsin (Bos taurus, UniProt P00760); assay: Antitrypsin activity: inhibition of S-2238 decomposition; type: biochemical; conditions: S-2238 substrate, read-out: Trypsin S-2238 (I50)
T3 sequence (P00760 24-246): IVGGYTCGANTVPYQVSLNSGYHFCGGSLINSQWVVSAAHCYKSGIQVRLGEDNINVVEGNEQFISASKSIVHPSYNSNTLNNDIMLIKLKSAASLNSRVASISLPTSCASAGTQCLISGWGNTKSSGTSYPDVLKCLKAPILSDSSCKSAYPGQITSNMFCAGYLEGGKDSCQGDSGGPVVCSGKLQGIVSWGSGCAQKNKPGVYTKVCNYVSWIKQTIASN
Experimental: Determination of inhibition activity against S-2238 decomposition
An inhibitor sample is dissolved in a 0.05M Tris-imidazole buffer solution (pH=8.1) and 125 μl of a 1 mM S-2238 solution is added to make the total volume to 1.20 ml. The mixture is incubated at a temperature of 37° C. for 5 minutes in a constant temperature bath. To this mixture, 0.05 ml of bovine trypsin is added and the absorbance, at 405 nm, of the p-nitroaniline formed per minute is determined at a temperature of 37° C. by using the so-called initial velocity method. Thus, the concentration I50 (μmol) of the inhibitor sample, at which the absorbance is one half (i.e., 1/2) of that obtained in the absence of the inhibitor sample, is determined.

human plasmin [4] = target: T2, human plasmin; assay: biochemical; conditions: read-out: Plasmin S-2251 (I50)
Experimental: An inhibitor sample is dissolved in a 0.05M Tris-hydrochloric acid buffer solution (pH=7.4) to make the total volume of 400 μl. […] Then, 50 μl of a 0.2 casein unit/ml human plasmin is added and the mixture is incubated at a temperature of 37° C. for 4 minutes. Thereafter, the reaction is stopped by adding 50 μl of 50% acetic acid.
Thus, the concentration I50 (μmol) of the inhibitor sample, at which the absorbance is one half (i.e., 1/2) of that obtained in the absence of the inhibitor, is determined.

human urokinase = human urokinase (Homo sapiens, UniProt P00749); assay: biochemical; conditions: S-2444 substrate, read-out: Urokinase S-2444 (I50)
Experimental: Determination of inhibition activity for S-2444 decomposition
An inhibitor sample is dissolved in a 0.05M Tris-hydrochloric acid buffer solution (pH=8.8) to make the total volume to 400 μl. To this solution, 50 μl of a 1 mM S-2444 solution is added and the mixture is incubated at a temperature of 37° C. for 5 minutes in a constant temperature bath. Then, 50 μl of a 500 unit/ml human urokinase is added and the mixture is incubated at a temperature of 37° C. for 5 minutes. Thereafter, 50 μl of 50% acetic acid is added to terminate the reaction. The absorbance of the p-nitroaniline formed in the reaction mixture is measured at 405 nm. Thus, the concentration I50 (μmol) of the inhibitor sample, at which the absorbance is one half (i.e., 1/2) of that obtained in the absence of the inhibitor sample, is determined.

[5] = Table 2, S-2238 substrate, pH 8.3, 37° C., read-out: Thrombin S-2238 (I50)
[6] = Table 2, concentration at which fibrin dissolution time is extended twice, pH 7.4, 37° C.
[7] = Table 4, comparative compounds of Table 3, coagulation time extended twice, read-out: Thrombin Fibrinogen (I50)
[8] = Table 4, comparative compounds of Table 3, S-2238 substrate, pH 8.3, read-out: Thrombin S-2238 (I50)
[9] = Table 4, comparative compounds of Table 3, pH 7.8
[10] = Table 4, comparative compounds of Table 3, pH 8.8

IC50 (bovine thrombin [1])	IC50 (bovine thrombin [2]; [5])	IC50 (human plasmin [3]; [6])	IC50 (human plasma kallikrein; Table 2, pH 7.8, 37° C.)	IC50 (bovine trypsin; Table 2, pH 8.1, 37° C.)	IC50 (human plasmin [4])	IC50 (human urokinase; Table 2, pH 8.8, 37° C.)	IC50 (bovine thrombin [2])	IC50 (bovine thrombin [1]; [7])	IC50 (bovine thrombin [2]; [8])	IC50 (human plasma kallikrein; [9])	IC50 (bovine trypsin; Table 4, comparative compounds of Table 3, pH 8.1)	IC50 (human urokinase; [10])	IC50 (human plasmin [3]; Table 4, comparative compounds of Table 3, fibrin dissolution time extended twice)	IC50 (human plasmin [4]; Table 4, comparative compounds of Table 3, S-2251 substrate, pH 7.4, 37° C.)	Compound
> 50 µM	> 50 µM	0.092 µM	0.54 µM	3.9 µM	0.8 µM	350 µM									NC[C@H]1CC[C@H](C(=O)N[C@@H](Cc2ccc(OCc3cccc(Cl)c3)cc2)C(=O)Nc2cccc(Cl)c2)CC1 [compound 66]
> 100 µM	> 400 µM	0.27 µM	0.14 µM	1.5 µM	0.63 µM	8 µM									CC(=O)c1ccc(NC(=O)[C@H](Cc2ccc(Oc3ccc([N+](=O)[O-])cc3)cc2)NC(=O)[C@H]2CC[C@H](CN)CC2)cc1 [Compound No. 95, N-(trans-4-aminomethylcyclohexylcarbonyl)-4-(4-nitrophenoxy)-L-phenylalanine 4-acetylanilide hydrochloride]
> 200 µM	280 µM	0.43 µM	0.18 µM	0.24 µM	0.95 µM	19 µM									CC(=O)c1ccc(NC(=O)[C@H](Cc2ccc(Oc3ccc([N+](=O)[O-])cn3)cc2)NC(=O)[C@H]2CC[C@H](CN)CC2)cc1 [Compound No. 121, N-(trans-4-aminomethylcyclohexylcarbonyl)-4-(5-nitro-2-pyridyloxy)-L-phenylalanine 4-acetylanilide hydrochloride]
> 50 µM	> 200 µM	0.31 µM	0.43 µM	1 µM	1.1 µM	34 µM									CC(=O)c1ccc(NC(=O)[C@H](Cc2ccc(OCc3cccc(C#N)c3)cc2)NC(=O)[C@H]2CC[C@H](CN)CC2)cc1 [Compound No. 122, N-(trans-4-aminomethylcyclohexylcarbonyl)-4-(3-cyanobenzyloxy)-L-phenylalanine 4-acetylanilide hydrochloride]
> 20 µM	> 200 µM	> 20 µM	120 µM	52 µM	33 µM	> 200 µM									NCc1ccc(C(=O)N[C@@H](Cc2ccc(OCc3ccccc3)cc2)C(=O)NC2CCC(O)CC2)cc1 (some centres unmarked) [compound 88]
> 50 µM	> 125 µM	0.72 µM	2.8 µM	1.3 µM	3.4 µM	> 150 µM									Cc1ccc(NC(=O)[C@H](Cc2ccc(OCc3ccccc3)cc2)NC(=O)[C@H]2CC[C@H](CN)CC2)cc1C [compound 58]
> 50 µM	> 100 µM	0.33 µM	17 µM	0.45 µM	1.1 µM	> 400 µM									CC1CCC(NC(=O)[C@H](Cc2ccc(OCc3ccccc3)cc2)NC(=O)c2ccc(CN)cc2)CC1C (stereo partly drawn) [Compound No. 80, N-(4-aminomethylbenzoyl)-4-benzyloxy-L-phenylalanine 3,4-dimethylcyclohexylamide hydrochloride]
> 200 µM	> 400 µM	0.58 µM	0.66 µM	1.2 µM	0.9 µM	37 µM									NC[C@H]1CC[C@H](C(=O)N[C@@H](Cc2ccc(Oc3cc(Cl)ccc3[N+](=O)[O-])cc2)C(=O)Nc2ccncc2)CC1 [Compound No. 137, N-(trans-4-aminomethylcyclohexylcarbonyl)-4-(3-chloro-6-nitrophenoxy)-L-phenylalanine 4-pyridylamide dihydrochloride]
> 100 µM	> 200 µM	0.58 µM	8.3 µM	2.4 µM	1.8 µM	> 500 µM									NCc1ccc(C(=O)N[C@@H](Cc2ccc(OCc3ccccc3)cc2)C(=O)NC2CC3CCC2C3)cc1 (some centres unmarked) [compound 62]
> 500 µM	> 200 µM	56 µM	17 µM	4.4 µM	170 µM	> 250 µM									NCc1ccc(C(=O)N[C@@H](Cc2ccccc2)C(=O)Nc2cccc(C(F)(F)F)c2)cc1 [compound 131]
	> 50 µM	1.1 µM	> 50 µM	5.8 µM	5.2 µM	> 300 µM									NCC1CCC(C(=O)NC(Cc2ccc(OCc3ccccc3)cc2)C(=O)NCc2ccc(F)cc2)CC1 (centres unmarked) [compound 111]
> 50 µM		0.095 µM		1 µM			> 100 µM								CC(=O)c1ccc(NC(=O)[C@H](Cc2ccc(OCc3cccc(Cl)c3)cc2)NC(=O)[C@H]2CC[C@H](CN)CC2)cc1 [Compound No. 35, N-(trans-4-aminomethylcyclohexylcarbonyl)-4-(3-chlorobenzyloxy)-L-phenylalanine 4-acetylanilide methane sulfonate]
> 500 µM	> 1000 µM	0.68 µM		1.8 µM											NC[C@H]1CC[C@H](C(=O)N[C@@H](Cc2ccc(OCc3ccccc3)cc2)C(=O)Nc2ccncc2)CC1 [compound 40]
								> 1000 µM	> 1000 µM	> 1000 µM	> 1000 µM	> 1000 µM			NC[C@H]1CC[C@H](C(=O)O)CC1 [Table 3 Compound No. 1, tranexamic acid, reference compound]
> 1000 µM	> 1000 µM			1.3 µM											CC(=O)c1ccc(NC(=O)[C@H](Cc2ccccc2)NC(=O)[C@H]2CC[C@H](CN)CC2)cc1 [Compound No. 2, N-(trans-4-aminomethylcyclohexylcarbonyl)-L-phenylalanine 4-acetylanilide]
> 200 µM		2.5 µM	18 µM		8.8 µM	> 100 µM	> 200 µM								COc1ccc(NC(=O)[C@H](Cc2ccc(OCc3ccccc3)cc2)NC(=O)c2ccc(CN)cc2)cn1 [compound 140]
								> 200 µM	> 200 µM	> 200 µM		> 200 µM	> 200 µM	> 200 µM	CC(=O)NC(Cc1ccc(OCc2ccccc2)cc1)C(=O)N(C)C (centres unmarked) [Table 3 Compound No. 5, reference compound]
